Experimental data: patent US10526580B2, “Differentiated cell population of endothelial cells derived from human pluripotent stem cells, composition, system, kit and uses thereof” (BIOCANT-ASSOCIAÇÃO DE TRANSFERÊNCIA DE TECNOLOGIA, priority 2012, dated 2020)

Key:
[1] = system: hESC-derived ECs versus ACL cells; test: High-throughput screening of LOPAC library, PrestoBlue cell viability, hESC-derived ECs versus ACL cells; format: cell-based, human; settings: LOPAC screen, 4.5 μM, 4 days of incubation, PrestoBlue assay
Description: (§1) High-throughput screening (HTS). HUAECS (Lonza) and hESC-derived ECs were cultured in EGM-2 medium while human anterior cruciate ligament cells (ACL cells) were cultured in Dulbecco's modified Eagle's medium (DMEM; PAA) supplemented with 10% FBS, 0.2 mM ascorbic acid 2-phosphate magnesium salt (Sigma Aldrich), […] streptomycin and 100 U/mL penicillin (Life Technologies). ACL cells were isolated from patients that have signed an informed consent form, in compliance with the Dutch legislation. The ethical committee of Medisch Spectrum Twente Hospital approved the collection.
(§2) The LOPAC library (Sigma-Aldrich) was used to screen embryonic endothelial-specific cytotoxic compounds. The compounds were solubilized in DMSO. The final compound concentration used in the screen was 4.5 μM in a final volume of 200 μL per well (96-well plate). HUAECs, hESC-derived EC and ACL cells were seeded at 16,000 cells/well (HUAECs and hESC-derived ECs) and 5,000 cells/well (ACL cells) and allowed to reach near confluence (approximately two days). After two days, medium was exchanged and test compounds and controls were added to the 96-well plates (all wells contained 0.25% (v/v) DMSO). After 4 days of incubation, cell viability was assessed using a PrestoBlue (Invitrogen) assay. This assay is based on a resazurin-based solution that indicates the reducing power of living cells and therefore measures indirectly their number. For each measurement, cell medium was removed and the PrestoBlue solution (10%) was added for 3 h at 37° C. upon which the absorbance was measured at 560-590 nm.
(§3) Disruption of vascular development has been directly correlated with prenatal loss, malformations and neurodevelopmental problems^41-44. […] The library was screened at a single dosage of 4.5 μM in a volume of 200 μL per well of EGM-2 medium, containing 0.25% DMSO (v/v). […] Six compounds (danazol, chlorpromazine hydrochloride, ellipticine, 3′,4′-dichlorobenzamil, fluphenazine dihydrochloride and 7-cyclopentyl-5-(4-phenoxy)phenyl-7H-pyrrolo[2,3-d]pyrimidin-4-ylamine) affected cell viability in both cells by a difference of 20% (FIG. 4B). The six compounds belong to different classes: cell cycle, ion pumps, dopamine pathway, phosphorylation and hormone signaling. The compounds selected from the primary screen were then tested against hESC-derived ECs and HUAECs at eight different concentrations to obtain a dose-response curve (FIG. 4C and FIG. 14).

[2] = system: hESC-derived ECs versus HUAECs; test: High-throughput screening of LOPAC library, PrestoBlue cell viability, hESC-derived ECs versus HUAECs; format: cell-based, human; settings: LOPAC screen, 4.5 μM, 4 days, PrestoBlue assay
Description: as §1, §2, §3

hESC-derived ECs = test: 7-Cyclo in PDMS microfluidic system, static or flow (morphology, qRT-PCR, ELISA); format: cell-based, human
Description: For the 7-cyclo studies the flow experiments were carried out in a microfluidic system developed by us. The microfluidic device was obtained using a cylindrical mold of 20 Gauge. Polydimethylsiloxane (PDMS) (Sylgard 184 Silicone elastomere base) was mixed at a 10:1 ratio (w/w) with curing agent (Sylgard 184 Silicon Elastomer Curing Agent) and the solution was poured onto a mold (20 gauge needle laid on a plastic dish) and cured at 80° C. for about 3 h. The microchannel was cut to 0.5 cm length (900 μm inner diameter) and treated with Plasma Clean (Electronic Diener Femto Plasma Surface Technology version 5) for 2 min with argon gas (2 mBar) before immersing it in a solution of 0.1% gelatin. HESC-derived ECs (20×10^6 cells/mL) or HUAECs were seeded on PDMS microchannels (3.18 μL cell suspension per channel) devices and grown until confluence. Using a programmed IBIDI pump with positive pressure, the cell monolayer was perfused with EGM-2 medium for 7 days; shear stress of 20 dyne/cm2 (. After 7 days the flow was stopped, the cells imaged, and then stained or collected for posterior gene analysis. Medium was collected for ELISA assays. In some experiments, cells were cultured in medium supplemented with 1 μM 7-cyclo (Sigma) for an additional time of 24 h, under shear stress. Static controls were carried out in the microfluidic system but without flow.
(§4) Evaluation of the levels of vascular injury by specific markers. ELISA kits analyzed supernatants collected from the shear stress experiments for vWF and vWFpp (Gen-Probe GTI Diagnostic) and ADMA (Enzo Life Sciences), according to manufacturer's recommendations.
To evaluate the effects of 7-Cyclo in flow conditions, hESC-derived ECs were cultured in a poly(dimethylsiloxane) (PDMS) microfluidic system with cylindrical channels for 7 days at 20 dyne/cm2 (FIG. 5A). ECs were able to form a confluent monolayer in the entire inner surface of the channel after 48 h. At day 7, cells were exposed to EGM-2 medium supplemented with 1 μM of 7-Cyclo for 24 h, and finally analyzed at morphological, genetic and secretion levels. […] Importantly, hESC-derived ECs cultured under flow conditions in the presence of 7-Cyclo secrete higher levels of ADMA (2.5 fold) and vWFpp:vWF (1.6 fold) than without the drug, and significant higher levels of ADMA than HUAECs.

HUAECs = test: 7-Cyclo in PDMS microfluidic system, static or flow (qRT-PCR, ELISA); format: cell-based, human; settings: flow 20 dyne/cm2, 1 μM for 24 h
Description: For the 7-cyclo studies the flow experiments were carried out in a microfluidic system developed by us. The microfluidic device was obtained using a cylindrical mold of 20 Gauge. Polydimethylsiloxane (PDMS) (Sylgard 184 Silicone elastomere base) was mixed at a 10:1 ratio (w/w) with curing agent (Sylgard 184 Silicon Elastomer Curing Agent) and the solution was poured onto a mold (20 gauge needle laid on a plastic dish) and cured at 80° C. for about 3 h. The microchannel was cut to 0.5 cm length (900 μm inner diameter) and treated with Plasma Clean (Electronic Diener Femto Plasma Surface Technology version 5) for 2 min with argon gas (2 mBar) before immersing it in a solution of 0.1% gelatin. […]
as §4
To evaluate the effects of 7-Cyclo in flow conditions, hESC-derived ECs were cultured in a poly(dimethylsiloxane) (PDMS) microfluidic system with cylindrical channels for 7 days at 20 dyne/cm2 (FIG. 5A). […] At day 7, cells were exposed to EGM-2 medium supplemented with 1 μM of 7-Cyclo for 24 h, and finally analyzed at morphological, genetic and secretion levels. […]

[3] = system: kinase activity of HUAECs; test: Kinase-Glo Luminescence Kinase Assay of cells; format: cell-based, human; settings: 24 h incubation, 0.1 or 1 μM
Description: (§5) The kinase activity of the hESC-derived ECs and HUAECs was assessed by luminescence (signal is inversely correlated with the level of kinase activity) in the absence or presence of the compound 7-Cyclo (FIG. 6D).
(§6) The kinase activity of cells was measured by a Kinase-Glo® Luminescence Kinase Assay (Promega). Cells incubated with 7-Cyclo for 24 h were treated with the kinase reagent from the kit and luminescence acquired using a Spectra Max Gemini luminometer. The luminescence signal is correlated with the amount of ATP present and its inversely correlated with the amount of kinase activity.

[4] = system: kinase activity of hESC-derived ECs; test: Kinase-Glo Luminescence Kinase Assay of cells; format: cell-based, human; settings: 24 h incubation, 0.1 or 1 μM
Description: as §5, §6

Xenopus embryos = settings: 20 μM; cited from earlier work
[5] = system: HUVECs and lymphatic EC tube formation; settings: 1 μM, in vitro; cited from earlier work
[6] = flow 20 dyne/cm2, 1 μM for 24 h, versus static conditions
[7] = flow conditions, 1 μM for 24 h, ELISA

Nc1ncnc2c1c(-c1ccc(Oc3ccccc3)cc1)cn2C1CCCC1 [7-Cyclo, 7-cyclopentyl-5-(4-phenoxy)phenyl-7H-pyrrolo[2,3-d]pyrimidin-4-ylamine]
Differences (%) in cell viability (hESC-Derived ECs versus ACL cells) [1]: 65.4%
difference in cell viability between hESC-derived ECs and HUAECs [2]: 20%
cell morphology (hESC-derived ECs; flow 20 dyne/cm2, 1 μM for 24 h): significant alterations
expression of DDAH1 and DDAH2 (hESC-derived ECs; [6]): statistically lower levels
expression of inflammatory genes ICAM-1, E-selectin, HO-1 and eNOS (hESC-derived ECs; [6]): statistically higher levels
secreted ADMA versus without the drug (hESC-derived ECs; [7]): 2.5 fold
secreted vWFpp:vWF versus without the drug (hESC-derived ECs; [7]): 1.6 fold
down-regulation of DDAH-1 and DDAH-2 (HUAECs): No down-regulation
expression of inflammatory genes (HUAECs): only ICAM-1 and eNOS genes were up-regulated
kinase activity versus time zero (luminescence) [3]: no significant decrease
kinase activity versus time zero (luminescence) [4]: decreased significantly
effect on vasculature of Xenopus embryos (Xenopus embryos): interfere with angiogenic sprouting and disrupt blood vessel formation
tube formation [5]: inhibits
